Experimental data: patent publication US7456197B2, “Pyridinium cationic lipids as gene transfer agents” (The Texas A&M University System, priority 2003, dated 2008)
Entries after “also recorded” stand apart in the source; their conditions may differ.

Assays:
cancer cell line NCI-H23 = assay: WST-1 viability assay of transfected cells; assay type: cell-based, human; conditions: NCI-H23 transfected with lipoplexes, Chol 1:1; FIG. 6
Description: FIG. 6. Viability assay results for the cancer cell line NCI-H23 transfected with 5AMyr-5EMyr and DOTAP (Cl^−)-based lipoplexes. The other characteristics were the same as in the transfection experiment represented in FIG. 5.
In order to assess the cytotoxicity associated with every anion, a WST-1^28 viability assay was conducted in parallel.

[1] = Critical (phase transition) temperature Tc by differential scanning calorimetry; assay type: physicochemical; conditions: for Tc (critical temperature), Pure: pure lipid; for Tc (phase transition temperature): lipids 21 and 25, DSC, heating rate 5° C./minute
Description: General. Melting points for the diols and the phase transition temperature Tc for the cationic lipids were determined by differential scanning calorimetry (DSC), using a TA-Instruments Q100 DSC, and a heating rate of 5° C./minute. The IR spectra were recorded on a Nicolet Avatar 360 FTIR spectrophotometer in the range 650-4000 cm^−1 using a ZnSe—attenuated total reflectance (ATR) accessory. The compounds were solved in a small amount of solvent (MeOH for the diols, CHCl3 for the lipids), and the resulted solutions were left to evaporate to dryness on the surface of the ZnSe crystals of the ATR accessory. The NMR spectra were recorded at ≈303 K with a Varian Inova spectrometer equipped with a 5 mm indirect detection probe, operating at 500 MHz for ^1H-NMR and at 125 MHz for ^13C-NMR. Chemical shifts are reported as δ values, using TMS as internal standard for proton spectra and the solvent resonance for carbon spectra. Assignments were made based on signal intensity, selective decoupling, COSY (^1H-^1H) and HETCOR (^1H-^13C) sequences. Elemental analyses were performed by combustion, using a Perkin Elmer 2400 Series II CHNS analyser.
(§1) Dioleoylphosphatidylethanolamine (DOPE), cholesterol (CHOL), N-(2,3-dioleoyloxypropyl)-N,N,N-trimethylammonium chloride (DOTAP) were commercial products. The purity of the lipids was checked by thin layer chromatography and also by differential scanning calorimetry (DSC), which was also used for determining the critical temperature Tc. For the preparation of the liposomes a protocol optimized for this type of compounds was adopted as follows. The cationic lipid (with or without helper lipid) was dissolved in chloroform/methanol (2/1, v/v) to reach a final concentration of 1 mM for the charged species. From this stock solution 50 μL were aliquoted in a 1 mL tube and the solvent was evaporated in a SpeedVac evaporator, under vacuum, for 1 h. The dried lipid film was prepared by removing the traces of organic solvent in a dessicator, over Drierite®, under vacuum, overnight. The film was hydrated with 500 μL sterile phosphate buffer saline (PBS) the tube was purged with sterile N2, and vortexed for 1 minute. The liposomes were generated by sonicating the tube in a water bath sonicator for 5-30 minutes at 62° C. and at 37° C. for DOTAP. After sonication the preparations were allowed to reach room temperature.
Materials and Methods. Melting points for the diols, acetates and ketals were determined on a Boetius heating plate microscope and are uncorrected. For the cationic lipids 21 and 25 the phase transition temperature Tc was determined by differential scanning calorimetry (DSC), using a TA-Instruments Q100 DSC, and a heating rate of 5° C./minute. The IR spectra were recorded on a Nicolet Avatar 360 FTIR spectrophotometer, in the range 650-4000 cm^−1, using a ZnSe—attenuated total reflectance (ATR) accessory. The compounds were solved in a small amount of solvent (MeOH for the diols, CHCl3 for the esters), the resulted solutions being left to evaporate to dryness on the surface of the ZnSe crystals of the ATR accessory. This technique was imposed by the poor results obtained in transmission mode for some of the compounds, due to the lack of crystallization, hygroscopicity and other problems related with working with KBr pellets. The NMR spectra were recorded at ≈303 K with a Varian Gemini 300BB spectrometer operating at 300 MHz for ^1H and at 75 MHz for ^13C. Chemical shifts are reported as δ values, using TMS as internal standard for proton spectra and the solvent resonance for carbon spectra: 77.00 ppm in CDCl3, 39.50 ppm in DMSO-d6, the line from 123.50 ppm in pyridine-d5, 62.80 ppm in nitromethane-d3, 30.10 ppm in dimethylformamide-d7. Assignments were made based on signal intensity, selective decoupling and COSY (^1H-^1H) and HETCOR (^1H-^13C) sequences. Nitrogen elemental analysis was performed by combustion, mixing the samples with small amounts of quartz sand.

[2] = test system: lung cancer cell line NCI-H23; assay: Luciferase (pGL3) transfection efficiency of lipoplexes, NCI-H23; assay type: cell-based, human; conditions: for transfection efficiency, counterion study: 5Myr/Chol 1:1, PBS, sonicated two sequences of 15 minutes, FIG. 5; for transfection efficiency (in words): cholesterol as helper lipid 1:1, charge ratio lipid/DNA 2:1
Description: (§2) The three series of cationic lipids newly synthesized were assessed for their transfection efficiency in vitro, using the experimental conditions optimized in a previous study.^23 Essentially the cationic lipids were mixed with cholesterol at a 1:1 molar ratio, dissolved in chloroform/methanol and dried under vacuum to generate a lipid film. The dried lipid film was hydrated with sterile phosphate buffer isotonic saline with pH=7.4 (PBS) and sonicated to yield cationic liposomes. The resulting liposomal solution was allowed to react with a DNA solution to form the final cationic lipid-DNA complexes (lipoplexes), which were assessed for transfection efficiency using different cell cultures. We used a pGL3 plasmid (Promega, Madison, Wisc.), encoding a firefly luciferase gene under the control of the constitutively active SV40 promoter as the reporter for the transfection efficiency. An optimal^23 electrostatic charge ratio cationic lipid/DNA of 2:1 was used in all preparations. […] The ability of these new cationic lipids to generate relatively small cationic liposomes could be attributed to the relatively large curvature radius induced in the bilayer by the bulky pyridinium cationic head.
as §1
For generating the lipoplexes, 1.4-2.8 μL plasmid DNA solution (0.5 μg/μL) was diluted with 100 μL Optimem®. A liposome solution was prepared separately by diluting the initial liposomal stock solution (0.1 mM in cationic lipid) with Optimem® in specified proportions, to reach a final volume of 50 μL. Over this liposome solution 50 μL of the DNA stock solution was added, the tube was incubated for 30 minutes at room temperature and then the content diluted with 500 μL Optimem® (final volume of the lipoplex stock solution: 600 μL).
The lipoplexes was tested for their transfection properties over five different cancer cell lines—breast carcinoma (MCF-7 and MDA-Mb231), lung carcinoma (NCI-H23), prostate carcinoma (DU-145) and brain carcinoma (SWB-95). The cells were maintained in 10% fetal bovine serum (FBS)—enriched RPMI 1640 at 37° C. and 5% CO2 in a humidified atmosphere. Twenty-four hours prior to transfection the cells were transferred in 96-wells microtiter plate at a density of 20,000 cells/well. Each well received 100 μL medium and the plate was incubated in the same conditions. All experiments were done in triplicate or quadruplicate.
Immediately before transfection the medium was removed from each well and the cells were briefly washed with 200 μL sterile PBS. After removal of the PBS each well received 100 μL lipoplex stock solution and the plate was placed in the incubator for 1 hour. Then, 100 μL medium was added to each well and the plate was incubated for 24 hours. […]

[3] = Cationic liposome size by dynamic light scattering; assay type: physicochemical
Description: as §2, §1

[4] = cholesterol at 1:1 molar ratio to cationic lipid
[5] = molar ratio of cholesterol to lipid halved

SMILES | Tc (critical temperature), Pure [1] [°C] | Tc (critical temperature), With cholesterol (1:1 molar ratio) ([1]; 1:1 molar ratio) [°C] | transfection efficiency (in words) [2] | other results
CC(=O)OCC(C[n+]1c(C)cc(C)cc1C)OC(C)=O.F[B-](F)(F)F (stereo not drawn) | – | – | – | melting point: 119 to 120 °C
CCCCCCCCCCCCCC(=O)OCC(COC(=O)CCCCCCCCCCCCC)[n+]1c(C)cc(C)cc1C.F[B-](F)(F)F [Lipid 5CMyr, 1-(1,3-dimyristoyloxypropane-2-yl)-2,4,6-trimethylpyridinium tetrafluoroborate] | 58.4 | 55.2 | – | cytotoxicity (WST-1 viability) (cancer cell line NCI-H23): minimum cytotoxicity
CCCCCCCCCCCCCC(=O)OCC(COC(=O)CCCCCCCCCCCCC)[n+]1c(C)cc(C)cc1C.[O-][Cl+3]([O-])([O-])[O-] [Lipid 5BMyr, 1-(1,3-dimyristoyloxypropane-2-yl)-2,4,6-trimethylpyridinium perchlorate] | 60.2 | 58.4 | – | cytotoxicity (WST-1 viability) (cancer cell line NCI-H23): more cytotoxic; transfection efficiency, counterion study [2]: most efficient lipoplexes
CCCCCCCCCCCCCC(=O)OCC(C[n+]1c(C)cc(C)cc1C)OC(=O)CCCCCCCCCCCCC.F[P-](F)(F)(F)(F)F (stereo not drawn) [Lipid 3AMyr, 1-(2,3-dimyristoyloxypropyl)-2,4,6-trimethylpyridinium hexafluorophosphate] | 121.3 | 112.5 | highest transfection peaks | average size of the cationic vesicles [3, 4]: 132 nm; average size of the cationic vesicles [3, 5]: 89 nm; Tc (critical temperature), With DOPE (1:1 molar ratio) ([1]; with DOPE, 1:1 molar ratio): 107.7 °C
CCCCCCCC/C=C\CCCCCCCC(=O)OCC(COC(=O)CCCCCCC/C=C\CCCCCCCC)[n+]1c(C)cc(C)cc1C.F[P-](F)(F)(F)(F)F [Lipid 5AOle, 1-(1,3-dioleoyloxypropane-2-yl)-2,4,6-trimethylpyridinium hexafluorophosphate] | 17.0 | 31.0 | low transfection efficiency | –
CCCCCCCC/C=C\CCCCCCCC(=O)OCC(C[n+]1c(C)cc(C)cc1C)OC(=O)CCCCCCC/C=C\CCCCCCCC.F[P-](F)(F)(F)(F)F (stereo not drawn) [Lipid 3AOle, 1-(2,3-dioleoyloxypropyl)-2,4,6-trimethylpyridinium hexafluorophosphate] | 67.9 | 58.5 | secondary peak | average size of the cationic vesicles [3, 4]: 113 nm; average size of the cationic vesicles [3, 5]: 103 nm
CCCCCCCCCCCCCC(=O)OCC(COC(=O)CCCCCCCCCCCCC)[n+]1c(C)cc(C)cc1C.[I-] [Lipid 5EMyr, 1-(1,3-dimyristoyloxypropane-2-yl)-2,4,6-trimethylpyridinium iodide] | 60.8 | 80.1 | – | cytotoxicity (WST-1 viability) (cancer cell line NCI-H23): more cytotoxic; transfection efficiency, counterion study [2]: followed by the hexafluorophosphate 5AMyr, chloride 5DMyr, tetrafluoroborate 5CMyr, and iodide 5EMyr
CCCCCCCCCCCCCCCC(=O)OCC(C[n+]1c(C)cc(C)cc1C)OC(=O)CCCCCCCCCCCCCCC.[O-][Cl+3]([O-])([O-])[O-] (stereo not drawn) [Lipid 21AaP, 1-(2,3-Dipamitoyloxypropyl)-2,4,6-trimethylpyridinium perchlorate] | – | – | – | Tc (phase transition temperature) [1]: 106 °C
CCCCCCCCCCCCCCCC(=O)Oc1ccc(CC[n+]2c(C)cc(C)cc2C)cc1OC(=O)CCCCCCCCCCCCCCC.F[P-](F)(F)(F)(F)F [Lipid 7APal, 1-(3,4-dipalmitoyloxyphenylethyl)-2,4,6-trimethylpyridinium hexafluorophosphate] | 140.0 | 124.1 | – | –
CCCCCCCCCCCCCCCC(=O)OCC(COC(=O)CCCCCCCCCCCCCCC)[n+]1c(C)cc(C)cc1C.[O-][Cl+3]([O-])([O-])[O-] [Lipid 25AaP, 1-(1,3-Dipamitoyloxypropane-2-yl)-2,4,6-trimethylpyridinium perchlorate] | – | – | – | Tc (phase transition temperature) [1]: 66 °C
CCCCCCCCCCCC(=O)OCC(C[n+]1c(C)cc(C)cc1C)OC(=O)CCCCCCCCCCC.F[P-](F)(F)(F)(F)F (stereo not drawn) [Lipid 3ALau, 1-(2,3-dilauroyloxypropyl)-2,4,6-trimethylpyridinium hexafluorophosphate] | 114.0 | 106.7 | – | –
CCCCCCCCCCCC(=O)Oc1ccc(CC[n+]2c(C)cc(C)cc2C)cc1OC(=O)CCCCCCCCCCC.F[P-](F)(F)(F)(F)F [Lipid 7ALau, 1-(3,4-dilauroyloxyphenylethyl)-2,4,6-trimethylpyridinium hexafluorophosphate] | 140.7 | 126.9 | best transfection efficiency | transfection efficiency relative to another derivative of series 7 ([2]; cholesterol 1:1, FIG. 2): about five times more active than the decanoyl derivative 7ACpc; also recorded: about ten times more efficient than the oleoyl derivative 7AOle
